Starred links: 1 amine or outer side, 2 acyl side, 3 side chain; linkers in the order of their positions; H or OH if unused. Positions of bridges follow the written chain, without caps; N, C: chain ends. Non-standard residues stand in square brackets, D forms with d. Residues, ends and D or L forms follow the SMILES beside them. *: point of attachment. X68 = COCCOCCOCCOCCOCCOCCC(=O)N(CCCC[C@@H](N[*:1])C(=O)[*:2])C(C)=O; Me3N+(CH2)2O(CH2)2O(CH2)2CO = C[N+](C)(C)CCOCCOCCC(=O)*; NH(CH2CH2O)2CH2CH2NMe3+ = C[N+](C)(C)CCOCCOCCN*; Trp(7-Me) = Cc1cccc2c(C[C@H](N)C(=O)O)c[nH]c12; Hexanoyl(6-NMe3+) = C[N+](C)(C)CCCCCC(=O)*; dLys(Me3) = C[N+](C)(C)CCCC[C@@H](N)C(=O)O; Lys(Me3) = C[N+](C)(C)CCCC[C@H](N)C(=O)O; 2Nal = N[C@@H](Cc1ccc2ccccc2c1)C(=O)O; Propanoyl(3,3,3-F3) = O=C(CC(F)(F)F)*; AEF = NCCOc1ccc(C[C@H](N)C(=O)O)cc1; X19 = C[N+](C)(C)C[C@@H](CC(=O)O)N*; X10 = C[N+](C)(C)C[C@H](CC(=O)O)N*; 3Pal = N[C@@H](Cc1cccnc1)C(=O)O; Lys(Me) = CNCCCC[C@H](N)C(=O)O; NHCH2CH2OCH2CH2OMe = COCCOCCN*; X7 = COCCOCCOCCOCCOCCOCCC(=O)*; Pen = CC(C)(S)[C@H](N)C(=O)O; Thp = NC1(C(=O)O)CCOCC1; Dap = NC[C@H](N)C(=O)O; Me2NCH2CH2 = CN(C)CC*; Sar = CNCC(=O)O
Assay: Exposed Polar Surface Area (EPSA)
Type: physicochemical
Details: SFC on Chirex 3014 column; sample 1 mM DMSO stock; read-out: EPSA
Summary of the method: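 Chirex 3014 column, 35 °C, 4 mL/min; CO2/MeOH + 20 mM NH4 formate, 5→60% modifier at 20%/min. UV/MS detection. EPSA (Å^2) from retention time vs 8-standard calibration line; duplicates; 1 mM DMSO stock injected undiluted.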

COCCOCCNC(=O)CN(C)C(=O)[C@H](Cc1cccnc1)NC(=O)[C@H](CC(N)=O)NC(=O)[C@H](CCC(=O)O)NC(=O)C1(NC(=O)[C@H](Cc2ccc3ccccc3c2)NC(=O)[C@H](Cc2ccc(OCCN)cc2)NC(=O)[C@H]2NC(=O)[C@H](CCCCNC(C)=O)NC(=O)[C@H](Cc3c[nH]c4c(C)cccc34)NC(=O)[C@H]([C@@H](C)O)NC(=O)[C@H](CC(N)=O)NC(=O)[C@@H](NC(C)=O)C(C)(C)SSC2(C)C)CCOCC1 [compound 116] (Ac-[Pen]NT[Trp(7-Me)]K(Ac)[Pen][AEF][2Nal][Thp]EN[3Pal][Sar]-NHCH2CH2OCH2CH2OMe; disulfide 1-6 (inferred))
EPSA: 170 A^2

CC(=O)N[C@@H]1C(=O)N[C@@H](CC(=O)N(C)C)C(=O)N[C@@H]([C@@H](C)O)C(=O)N[C@@H](Cc2c[nH]c3c(C)cccc23)C(=O)N[C@@H](CCCC[N+](C)(C)C)C(=O)N[C@H](C(=O)N[C@@H](Cc2ccc(OCCN(C)C)cc2)C(=O)N[C@@H](Cc2ccc3ccccc3c2)C(=O)NC2(C(=O)N[C@@H](CCCC[N+](C)(C)C)C(=O)N[C@@H](CC(N)=O)C(=O)N[C@@H](Cc3cccnc3)C(=O)N(C)CC(=O)N(C)C)CCOCC2)C(C)(C)SSC1(C)C [compound 117, MeCO-Pen(3)-N(N(Me)2)-T-7MeW-K(Me)3-Pen(3)-AEF(N(Me)2)-2Nal-THP-K(Me)3-N-3Pya-Sar-CON(Me)2] (Ac-[Pen]D(NMe2)T[Trp(7-Me)][Lys(Me3)][Pen]Y(Me2NCH2CH2)[2Nal][Thp][Lys(Me3)]N[3Pal][Sar]-NMe2; disulfide 1-6)
EPSA: 139 A^2

CC(=O)N[C@@H]1C(=O)N[C@@H](CC(=O)N(C)C)C(=O)N[C@@H]([C@@H](C)O)C(=O)N[C@@H](Cc2c[nH]c3c(C)cccc23)C(=O)N[C@@H](CCC(=O)N(C)C)C(=O)N[C@H](C(=O)N[C@@H](Cc2ccc(OCCN(C)C)cc2)C(=O)N[C@@H](Cc2ccc3ccccc3c2)C(=O)NC2(C(=O)N[C@@H](CCC(=O)O)C(=O)N[C@@H](CC(N)=O)C(=O)N[C@@H](Cc3cccnc3)C(=O)N(C)CC(=O)N(C)C)CCOCC2)C(C)(C)SSC1(C)C [compound 120, MeCO-Pen(3)-N(N(Me)2)-T-7MeW-Q(N(Me)2)-Pen(3)-AEF(N(Me)2)-2Nal-THP-E-N-3Pya-Sar-CON(Me)2] (Ac-[Pen]D(NMe2)T[Trp(7-Me)]E(NMe2)[Pen]Y(Me2NCH2CH2)[2Nal][Thp]EN[3Pal][Sar]-NMe2; disulfide 1-6)
EPSA: 153 A^2

COCCOCCOCCOCCOCCOCCC(=O)N(CCCC[C@@H](NC(=O)C1(NC(=O)[C@H](Cc2ccc3ccccc3c2)NC(=O)[C@H](Cc2ccc(OCCN)cc2)NC(=O)[C@H]2NC(=O)[C@H](CCCCNC(C)=O)NC(=O)[C@H](Cc3c[nH]c4c(C)cccc34)NC(=O)[C@H]([C@@H](C)O)NC(=O)[C@H](CC(N)=O)NC(=O)[C@@H](NC(C)=O)C(C)(C)SSC2(C)C)CCOCC1)C(=O)N[C@@H](CC(N)=O)C(=O)N[C@@H](Cc1cccnc1)C(=O)N(C)CC(N)=O)C(C)=O [compound 123] (Ac-[Pen]NT[Trp(7-Me)]K(Ac)[Pen][AEF][2Nal][Thp][X68]N[3Pal][Sar]-NH2; disulfide 1-6)
EPSA: 156 A^2

COCCOCCOCCOCCOCCOCCC(=O)N(C)CCCC[C@@H]1NC(=O)[C@H](Cc2c[nH]c3c(C)cccc23)NC(=O)[C@H]([C@@H](C)O)NC(=O)[C@H](CC(N)=O)NC(=O)[C@@H](NC(C)=O)C(C)(C)SSC(C)(C)[C@@H](C(=O)N[C@@H](Cc2ccc(OCCN)cc2)C(=O)N[C@@H](Cc2ccc3ccccc3c2)C(=O)NC2(C(=O)N[C@@H](CCCCNC(C)=O)C(=O)N[C@@H](CC(N)=O)C(=O)N[C@@H](Cc3cccnc3)C(=O)N(C)CC(N)=O)CCOCC2)NC1=O [compound 124] (Ac-[Pen]NT[Trp(7-Me)][Lys(Me)](X7)[Pen][AEF][2Nal][Thp]K(Ac)N[3Pal][Sar]-NH2; disulfide 1-6)
EPSA: 158 A^2

CC(=O)NCCCC[C@@H]1NC(=O)[C@H](Cc2c[nH]c3c(C)cccc23)NC(=O)[C@H]([C@@H](C)O)NC(=O)[C@H](CC(N)=O)NC(=O)[C@@H](NC(=O)[C@@H](CCC(=O)N[C@@H](CC(=O)O)C[N+](C)(C)C)NC(C)=O)C(C)(C)SSC(C)(C)[C@@H](C(=O)N[C@@H](Cc2ccc(OCCN)cc2)C(=O)N[C@@H](Cc2ccc3ccccc3c2)C(=O)NC2(C(=O)N[C@@H](CCCCNC(C)=O)C(=O)N[C@@H](CC(N)=O)C(=O)N[C@@H](Cc3cccnc3)C(=O)N(C)CC(N)=O)CCOCC2)NC1=O [compound 126] (Ac-[dE](X10)[Pen]NT[Trp(7-Me)]K(Ac)[Pen][AEF][2Nal][Thp]K(Ac)N[3Pal][Sar]-NH2; disulfide 2-7)
EPSA: 184 A^2

CC(=O)NCCCC[C@@H]1NC(=O)[C@H](Cc2c[nH]c3c(C)cccc23)NC(=O)[C@H]([C@@H](C)O)NC(=O)[C@H](CC(N)=O)NC(=O)[C@@H](NC(C)=O)C(C)(C)SSC(C)(C)[C@@H](C(=O)N[C@@H](Cc2ccc(OCCN)cc2)C(=O)N[C@@H](Cc2ccc3ccccc3c2)C(=O)NC2(C(=O)N[C@@H](CCC(=O)N[C@H](CC(=O)O)C[N+](C)(C)C)C(=O)N[C@@H](CC(N)=O)C(=O)N[C@@H](Cc3cccnc3)C(=O)N(C)CC(N)=O)CCOCC2)NC1=O [compound 127] (Ac-[Pen]NT[Trp(7-Me)]K(Ac)[Pen][AEF][2Nal][Thp]E(X19)N[3Pal][Sar]-NH2; disulfide 1-6)
EPSA: 179 A^2

CC(=O)NCCCC[C@@H]1NC(=O)[C@H](Cc2c[nH]c3c(C)cccc23)NC(=O)[C@H]([C@@H](C)O)NC(=O)[C@H](CC(N)=O)NC(=O)[C@@H](NC(C)=O)C(C)(C)SSC(C)(C)[C@@H](C(=O)N[C@@H](Cc2ccc(OCCN)cc2)C(=O)N[C@@H](Cc2ccc3ccccc3c2)C(=O)NC2(C(=O)N[C@@H](CCC(=O)N[C@@H](CC(=O)O)C[N+](C)(C)C)C(=O)N[C@@H](CC(N)=O)C(=O)N[C@@H](Cc3cccnc3)C(=O)N(C)CC(N)=O)CCOCC2)NC1=O [compound 128] (Ac-[Pen]NT[Trp(7-Me)]K(Ac)[Pen][AEF][2Nal][Thp]E(X10)N[3Pal][Sar]-NH2; disulfide 1-6)
EPSA: 175 A^2

COCCOCCOCCOCCOCCOCCOCCOCCNC(=O)CN(C)C(=O)[C@H](Cc1cccnc1)NC(=O)[C@H](CC(N)=O)NC(=O)[C@H](CCC(=O)O)NC(=O)C1(NC(=O)[C@H](Cc2ccc3ccccc3c2)NC(=O)[C@H](Cc2ccc(OCCN)cc2)NC(=O)[C@H]2NC(=O)[C@H](CCCCNC(C)=O)NC(=O)[C@H](Cc3c[nH]c4c(C)cccc34)NC(=O)[C@H]([C@@H](C)O)NC(=O)[C@H](CC(N)=O)NC(=O)[C@@H](NC(C)=O)C(C)(C)SSC2(C)C)CCOCC1 [compound 132]
EPSA: 163 A^2

CC(=O)NC[C@H](NC(=O)C1(NC(=O)[C@H](Cc2ccc3ccccc3c2)NC(=O)[C@H](Cc2ccc(OCCN(C)C)cc2)NC(=O)[C@H]2NC(=O)[C@H](CCCCN(C)C(C)=O)NC(=O)[C@H](Cc3c[nH]c4c(C)cccc34)NC(=O)[C@H]([C@@H](C)O)NC(=O)[C@H](CC(=O)N(C)C)NC(=O)[C@@H](NC(=O)CCCCC[N+](C)(C)C)C(C)(C)SSC2(C)C)CCOCC1)C(=O)N[C@@H](CC(N)=O)C(=O)N[C@@H](Cc1cccnc1)C(=O)N(C)CC(=O)N(C)C [compound 133, 5cpaCO-Pen(3)-N(N(Me)2)-T-7MeW-K(NMeAc)-Pen(3)-AEF(N(Me)2)-2Nal-THP-Dap(Ac)-N-3Pya-Sar-CON(Me)2] ({Hexanoyl(6-NMe3+)}-[Pen]D(NMe2)T[Trp(7-Me)][Lys(Me)](Ac)[Pen]Y(Me2NCH2CH2)[2Nal][Thp][Dap](Ac)N[3Pal][Sar]-NMe2; disulfide 1-6 (inferred))
EPSA: 151 A^2

CC(=O)NCCCC[C@@H]1NC(=O)[C@H](Cc2c[nH]c3c(C)cccc23)NC(=O)[C@H]([C@@H](C)O)NC(=O)[C@H](CC(N)=O)NC(=O)[C@@H](NC(C)=O)C(C)(C)SSC(C)(C)[C@@H](C(=O)N[C@@H](Cc2ccc(OCCN)cc2)C(=O)N[C@@H](Cc2ccc3ccccc3c2)C(=O)NC2(C(=O)N[C@@H](CCC(=O)O)C(=O)N[C@@H](CC(N)=O)C(=O)N[C@@H](Cc3cccnc3)C(=O)N(C)CC(=O)NCCOCCOCC[N+](C)(C)C)CCOCC2)NC1=O [compound 134] (Ac-[Pen]NT[Trp(7-Me)]K(Ac)[Pen][AEF][2Nal][Thp]EN[3Pal][Sar]-{NH(CH2CH2O)2CH2CH2NMe3+}; disulfide 1-6)
EPSA: 159 A^2

Cc1cccc2c(C[C@@H]3NC(=O)[C@H]([C@@H](C)O)NC(=O)[C@H](CC(N)=O)NC(=O)[C@@H](NC(=O)CCOCCOCC[N+](C)(C)C)C(C)(C)SSC(C)(C)[C@@H](C(=O)N[C@@H](Cc4ccc(OCCN)cc4)C(=O)N[C@@H](Cc4ccc5ccccc5c4)C(=O)NC4(C(=O)N[C@@H](CCC(=O)N(C)C)C(=O)N[C@@H](CC(N)=O)C(=O)N[C@@H](Cc5cccnc5)C(=O)N(C)CC(N)=O)CCOCC4)NC(=O)[C@H](CCC(=O)N(C)C)NC3=O)c[nH]c12 [compound 137, cPEG3aCO-Pen(3)-N-T-7MeW-Q(N(Me)2)-Pen(3)-AEF-2Nal-THP-Q(N(Me)2)-N-3Pya-Sar-CONH2] ({Me3N+(CH2)2O(CH2)2O(CH2)2CO}-[Pen]NT[Trp(7-Me)]E(NMe2)[Pen][AEF][2Nal][Thp]E(NMe2)N[3Pal][Sar]-NH2; disulfide 1-6)
EPSA: 160 A^2

CC(=O)N[C@@H]1C(=O)N[C@@H](CC(N)=O)C(=O)N[C@@H]([C@@H](C)O)C(=O)N[C@@H](Cc2c[nH]c3c(C)cccc23)C(=O)N[C@@H](CCC(=O)N(C)C)C(=O)N[C@H](C(=O)N[C@@H](Cc2ccc(OCCN)cc2)C(=O)N[C@@H](Cc2ccc3ccccc3c2)C(=O)NC2(C(=O)N[C@@H](CCC(=O)N(C)C)C(=O)N[C@@H](CC(N)=O)C(=O)N[C@@H](Cc3cccnc3)C(=O)N(C)CC(N)=O)CCOCC2)C(C)(C)SSC1(C)C [compound 138] (Ac-[Pen]NT[Trp(7-Me)]E(NMe2)[Pen][AEF][2Nal][Thp]E(NMe2)N[3Pal][Sar]-NH2; disulfide 1-6 (inferred))
EPSA: 159 A^2

CC(=O)NCCCC[C@@H]1NC(=O)[C@H](Cc2c[nH]c3c(C)cccc23)NC(=O)[C@H]([C@@H](C)O)NC(=O)[C@H](CC(N)=O)NC(=O)[C@@H](NC(=O)[C@@H](CCCC[N+](C)(C)C)NC(=O)CC(F)(F)F)C(C)(C)SSC(C)(C)[C@@H](C(=O)N[C@@H](Cc2ccc(OCCN)cc2)C(=O)N[C@@H](Cc2ccc3ccccc3c2)C(=O)NC2(C(=O)N[C@@H](CCCCNC(C)=O)C(=O)N[C@@H](CC(N)=O)C(=O)N[C@@H](Cc3cccnc3)C(=O)N(C)CC(N)=O)CCOCC2)NC1=O [compound 144] ({Propanoyl(3,3,3-F3)}-[dLys(Me3)][Pen]NT[Trp(7-Me)]K(Ac)[Pen][AEF][2Nal][Thp]K(Ac)N[3Pal][Sar]-NH2; disulfide 2-7)
EPSA: 161 A^2

From US20260022143A1, “Cyclic Peptide Inhibitors of IL-23” (JANSSEN PHARMACEUTICA NV, priority 2022, published 2026)
